Source: ChEMBL document CHEMBL1149729, “A bioassay for inhibition of serotonin release from bovine platelets” (J Nat Prod, 1992)
Where a name gives a salt, the structure may show the parent alone.

How the values were obtained:
[1] = Antimigraine activity in human citreated platelet assessed as inhibition of [14C]serotonin release after 6 mins by scintillation counting; format: functional, cell-based; conditions: 0.1 h
[2] = Antimigraine activity in bovine citreated platelet assessed as inhibition of [14C]serotonin release after 6 mins by scintillation counting; format: functional, cell-based; conditions: Bos taurus, 0.1 h
[3] = Antimigraine activity in ADP-stimulated bovine citreated platelet assessed as inhibition of [14C]serotonin release at 100 uM after 6 mins by scintillation counting; format: functional; conditions: Bos taurus, 0.1 h

Row | IC50 [1] [µM] | IC50 [2] [µM] | Structure (SMILES) | inhibition at 100 µM [3] [%]
1 | 770 | 578 | COc1ccc(CCN(C)CCCC(C#N)(c2ccc(OC)c(OC)c2)C(C)C)cc1OC (stereo not given) [VERAPAMIL HYDROCHLORIDE] | 
2 | 5.64 |  | C=C1C(=O)O[C@@H]2C3O[C@]3(C)CC/C=C(\C)CC[C@@H]12 (stereo not given in full) | 20.3
3 |  | > 516 | C=C1C(=O)O[C@@H]2C[C@@]3(C)CCCC(=C)[C@@H]3C[C@H]12 [ISOALANTOLACTONE] | 
